Reference: patent US10329289B2, “6,7-dihydro-5H-pyrrolo[3,4-B]pyridin-5-one allosteric modulators of the M4 muscarinic acetylcholine receptor” (Merck Sharp & Dohme Corp., priority 2015, dated 2019)

Target: T1, human M4 muscarinic acetylcholine receptor (Homo sapiens, UniProt P08173)
T1 construct: expressed in transfected cells; host or cells: CHO-K1
T1 sequence (P08173 1-479): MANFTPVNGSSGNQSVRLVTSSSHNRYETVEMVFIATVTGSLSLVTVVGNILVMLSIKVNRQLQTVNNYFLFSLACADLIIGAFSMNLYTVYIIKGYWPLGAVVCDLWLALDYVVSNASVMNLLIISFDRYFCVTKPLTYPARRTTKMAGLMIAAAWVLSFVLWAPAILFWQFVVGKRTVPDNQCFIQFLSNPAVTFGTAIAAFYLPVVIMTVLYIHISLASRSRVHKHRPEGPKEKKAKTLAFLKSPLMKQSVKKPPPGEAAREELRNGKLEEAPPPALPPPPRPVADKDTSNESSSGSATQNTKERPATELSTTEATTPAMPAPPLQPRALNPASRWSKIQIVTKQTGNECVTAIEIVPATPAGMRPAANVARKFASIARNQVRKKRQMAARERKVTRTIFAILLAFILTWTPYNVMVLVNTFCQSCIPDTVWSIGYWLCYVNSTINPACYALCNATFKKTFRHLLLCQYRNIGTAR
Experiment: human FLIPR-based M4 PAM assay (Ca2+ mobilization, CHO-K1 cells with human M4 receptor and Gαqi5)
Type: cell-based
Settings: acetylcholine at 20% of maximum response, read-out: M4 PAM IP
Procedure, shortened: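 CHO-K1 cells stably expressing human M4 and chimeric Gαqi5 were dye-loaded ~1 h at 37 °C and read for Ca2+ fluorescence. Compound followed by acetylcholine at an EC20 (sometimes an EC70 third addition); inflection point from a 4-parameter logistic fit.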

Row | Compound | EC50 [nM]
1 | Cc1cc2c(nc1N1CCC(Oc3ccc4c(c3)CCCN4C)CC1)CNC2=O [Example 291, 3-methyl-2-(4-((1-methyl-1,2,3,4-tetrahydroquinolin-6-yl)oxy)piperidin-1-yl)-6,7-dihydro-5H-pyrrolo[3,4-b]pyridin-5-one] | 204
2 | COCCOCc1cccc(OC2CCN(c3nc4c(cc3C)C(=O)NC4)CC2)c1 [Example 58, 2-(4-(3-((2-methoxyethoxy)meth-yl)phenoxy)piperi-din-1-yl)-3-methyl-6,7-dihydro-5H-pyrrolo[3,4-b]pyridin-5-one] | 192
3 | Cc1cc2c(nc1N1CCC(Oc3ccc4c(c3)CCOC4)CC1)[C@@H](CO)N(C)C2=O [Example 349A, (S)-7-(hydroxymethyl)-2-(4-(isochroman-6-yloxy)piperidin-1-yl)-3,6-dimethyl-6,7-dihydro-5H-pyrrolo[3,4-b]pyridin-5-one] | 22
4 | Cc1c(N2CCC(Oc3ccc4c(c3)OCC4)CC2)nc2c(c1C)C(=O)N(CCO)C2 [Example 266A, 2-(4-((2,3-dihydrobenzofuran-6-yl)oxy)piperidin-1-yl)-6-(2-hydroxyethyl)-3,4-dimethyl-6,7-dihydro-5H-pyrrolo[3,4-b]pyridin-5-one] | 44
5 | Cc1cc2c(nc1N1CCC(Oc3ccc4c(c3)C[S+]([O-])C4)CC1)CNC2=O (single isomer, unassigned) [Example 168B] | 166
6 | COc1cccc(OC2CCN(c3nc4c(cc3C)C(=O)NC4)CC2)c1 [Example 51, 2-(4-(3-methoxyphenoxy)piperidin-1-yl)-3-methyl-6,7-dihydro-5H-pyrrolo[3,4-b]pyridin-5-one] | 51
7 | Cc1cc2c(nc1N1CCC(Oc3ccc4c(c3)COC4)CC1)[C@H](CO)N(C)C2=O [Example 282, (R)-2-(4-((1,3-dihydro-2-benzofuran-5-yl)oxy)piperidin-1-yl)-7-(hydroxymethyl)-3,6-dimethyl-6,7-dihydro-5H-pyrrolo[3,4-b]pyridin-5-one] | 623
8 | Cc1cc2c(nc1N1CCC(Oc3cccc(C#N)c3)CC1)CN(C)C2=O [Example 11, 3-((1-(3,6-dimethyl-5-oxo-6,7-dihydro-5H-pyrrolo[3,4-b]pyridin-2-yl)piperidin-4-yl)oxy)benzonitrile] | 38
9 | Cc1cc2c(nc1N1CCC(OCC(C)C)CC1)CNC2=O [Example 192, 2-(4-isobutoxypiperidin-1-yl)-3-methyl-6,7-dihydro-5H-pyrrolo[3,4-b]pyridin-5-one] | 310
10 | COc1ccc(OC2CCN(c3nc4c(cc3C#N)C(=O)NC4)CC2)cn1 [Example 223, 2-(4-((6-methoxypyridin-3-yl)oxy)piperidin-1-yl)-5-oxo-6,7-dihydro-5H-pyrrolo[3,4-b]pyridine-3-carbonitrile] | 344
11 | COc1ccc(OC2CCN(c3nc4c(cc3C)C(=O)N(C)C4(CO)CO)CC2)cn1 [Example 274, 7,7-Bis(hydroxymethyl)-2-(4-((6-methoxpyridin-3-yl)oxy)piperidin-1-yl)-3,6-dimethyl-6,7-dihydro-5H-pyrrolo[3,4-b]pyridin-5-one] | 1160
12 | Cc1cc2c(nc1N1CCC(Oc3ccc4c(c3)CC(C)(C)O4)CC1)CNC2=O [Example 321, 2-(4-((2,2-Dimethyl-2,3-dihydrobenzofuran-5-yl)oxy)piperidin-1-yl)-3-methyl-6,7-dihydro-5H-pyrrolo[3,4-b]pyridin-5-one] | 193
13 | CCc1cc2c(nc1N1CCC(Oc3ccc4c(c3)COC4)CC1)CN(CCO)C2=O [Example 258, 2-(4-((1,3-dihydro-2-benzofuran-5-yl)oxy)piperidin-1-yl)-3-ethyl-6-(2-hydroxyethyl)-6,7-dihydro-5H-pyrrolo[3,4-b]pyridin-5-one] | 126
14 | Cc1cc2c(nc1N1CC[C@@H](Oc3cccc(C#N)c3)[C@H](F)C1)CNC2=O [Example 21, 3-(((3R,4R)-3-fluoro-1-(3-methyl-5-oxo-6,7-dihydro-5H-pyrrolo[3,4-b]pyridin-2-yl)piperidin-4-yl)oxy)benzonitrile] | 50
15 | COCCOc1ccc(O[C@H]2CCN(c3nc4c(cc3C)C(=O)NC4)C[C@H]2F)cn1 (stereo in doubt) [Example 61, 2-((3R,4S)-3-fluoro-4-((6-(2-methoxyethoxy)pyridin-3-yl)oxy)piperidin-1-yl)-3-methyl-6,7-dihydro-5H-pyrrolo[3,4-b]pyridin-5-one] | 135
16 | Cc1c(N2CC[C@H](OCC3(C)CC3)[C@@H](F)C2)nc2c(c1C)C(=O)NC2 [Example 219A, 2-((3S,4S)-3-fluoro-4-((1-methylcyclopropyl)methoxy)piperidin-1-yl)-3,4-dimethyl-6,7-dihydro-5H-pyrrolo[3,4-b]pyridin-5-one] | 46
17 | Cc1cc2c(nc1N1CCC(Oc3ccc4c(c3)CCOC4)CC1)CNC2=O [Example 207, 2-(4-(isochroman-6-yloxy)piperidin-1-yl)-3-methyl-6,7-dihydro-5H-pyrrolo[3,4-b]pyridin-5-one] | 30
18 | Cc1cc2c(nc1N1CCC(Oc3cnc4c(c3)CCCO4)CC1)CNC2=O [Example 194, 2-(4-((3,4-dihydro-2H-pyrano[2,3-b]pyridin-6-yl)oxy)piperidin-1-yl)-3-methyl-6,7-dihydro-5H-pyrrolo[3,4-b]pyridin-5-one] | 532
19 | Cc1cc2c(nc1N1CCC(Oc3ccc4ncoc4c3)CC1)CNC2=O [Example 89, 2-(4-(benzo[d]oxazol-6-yloxy)piperidin-1-yl)-3-methyl-6,7-dihydro-5H-pyrrolo[3,4-b]pyridin-5-one] | 83
20 | Cc1cc2c(nc1N1[C@@H]3CC[C@H]1C[C@H](Oc1cccc(C#N)c1)C3)CNC2=O [Example 96, 3-((exo-8-(3-methyl-5-oxo-6,7-dihydro-5H-pyrrolo[3,4-b]pyridin-2-yl)-8-azabicyclo[3.2.1]octan-3-yl)oxy)benzonitrile] | 1430
21 | Cc1c(N2CCC(Oc3ccc4c(cnn4C)c3)CC2)nc2c(c1C)C(=O)N(CCO)C2 [Example 265D, 6-(2-hydroxyethyl)-3,4-dimethyl-2-(4-((1-methyl-1H-indazol-5-yl)oxy)piperidin-1-yl)-6,7-dihydro-5H-pyrrolo[3,4-b]pyridin-5-one] | 65
22 | Cc1c(N2CCC(OC[C@@]3(C)CC3(F)F)CC2)nc2c(c1C)C(=O)NC2 (single isomer, unassigned) [Example 329A] | 47
23 | Cc1cc2c(nc1N1CCC(Oc3ccc4c(c3)OC[C@H]4CCO)CC1)CNC2=O [Example 154, (S)-2-(4-((3-(2-hydroxyethyl)-2,3-dihydrobenzofuran-6-yl)oxy)piperidin-1-yl)-3-methyl-6,7-dihydro-5H-pyrrolo[3,4-b]pyridin-5-one] | 128
24 | Cc1cc2c(nc1N1CCC(Oc3ccccc3)C(F)(F)C1)CNC2=O (single isomer, unassigned) [Example 158B, trans-2-(3,3-Difluoro-4-phenoxypiperidin-1-yl)-3-methyl-6,7-dihydro-5H-pyrrolo[3,4-b]pyridin-5-one] | 17
25 | Cc1cc2c(nc1N1CC[C@@H](Oc3ccc(F)cc3)[C@@H](F)C1)CN(CCO)C2=O [Example 262, 2-((3S,4R)-3-fluoro-4-(4-fluorophenoxy)piperidin-1-yl)-6-(2-hydroxyethyl)-3-methyl-6,7-dihydro-5H-pyrrolo[3,4-b]pyridin-5-one] | 43
26 | Cc1c(N2CCC(Oc3ccc4c(c3)COC4)CC2)nc2c(c1C)C(=O)N(C)[C@H]2CO (single isomer, unassigned) [Example 337B] | 867
